Laboratory results from publication PMC12090182, “Repurposing of the RIPK1-Selective Benzo[1,4]oxazepin-4-one Scaffold for the Development of a Type III LIMK1/2 Inhibitor” (ACS Chemical Biology, 2025).
Read-outs that look alike come from different tables or passages of the source.

How the values were obtained:
Assay in all cases: biochemical
Type in all cases: binding
[1] = molecular target: 468 kinases including some pathogenic mutants (Homo sapiens, UniProt O00506); details: YSK1 (Entrez STK25), 1000 nM; read-out: Percent Control
[2] = molecular target: 468 kinases including some pathogenic mutants (Homo sapiens, UniProt O00750); details: PIK3C2B (Entrez PIK3C2B), 1000 nM; read-out: Percent Control
[3] = molecular target: 468 kinases including some pathogenic mutants (Homo sapiens, UniProt O43293); details: DAPK3 (Entrez DAPK3), 100 nM; read-out: Percent Control
[4] = molecular target: 468 kinases including some pathogenic mutants (Homo sapiens, UniProt P08922); details: ROS1 (Entrez ROS1), 100 nM; read-out: Percent Control
Sequence of 468 kinases including some pathogenic mutants (Homo sapiens, UniProt P08922) (P08922 28-2347, stated change not applied): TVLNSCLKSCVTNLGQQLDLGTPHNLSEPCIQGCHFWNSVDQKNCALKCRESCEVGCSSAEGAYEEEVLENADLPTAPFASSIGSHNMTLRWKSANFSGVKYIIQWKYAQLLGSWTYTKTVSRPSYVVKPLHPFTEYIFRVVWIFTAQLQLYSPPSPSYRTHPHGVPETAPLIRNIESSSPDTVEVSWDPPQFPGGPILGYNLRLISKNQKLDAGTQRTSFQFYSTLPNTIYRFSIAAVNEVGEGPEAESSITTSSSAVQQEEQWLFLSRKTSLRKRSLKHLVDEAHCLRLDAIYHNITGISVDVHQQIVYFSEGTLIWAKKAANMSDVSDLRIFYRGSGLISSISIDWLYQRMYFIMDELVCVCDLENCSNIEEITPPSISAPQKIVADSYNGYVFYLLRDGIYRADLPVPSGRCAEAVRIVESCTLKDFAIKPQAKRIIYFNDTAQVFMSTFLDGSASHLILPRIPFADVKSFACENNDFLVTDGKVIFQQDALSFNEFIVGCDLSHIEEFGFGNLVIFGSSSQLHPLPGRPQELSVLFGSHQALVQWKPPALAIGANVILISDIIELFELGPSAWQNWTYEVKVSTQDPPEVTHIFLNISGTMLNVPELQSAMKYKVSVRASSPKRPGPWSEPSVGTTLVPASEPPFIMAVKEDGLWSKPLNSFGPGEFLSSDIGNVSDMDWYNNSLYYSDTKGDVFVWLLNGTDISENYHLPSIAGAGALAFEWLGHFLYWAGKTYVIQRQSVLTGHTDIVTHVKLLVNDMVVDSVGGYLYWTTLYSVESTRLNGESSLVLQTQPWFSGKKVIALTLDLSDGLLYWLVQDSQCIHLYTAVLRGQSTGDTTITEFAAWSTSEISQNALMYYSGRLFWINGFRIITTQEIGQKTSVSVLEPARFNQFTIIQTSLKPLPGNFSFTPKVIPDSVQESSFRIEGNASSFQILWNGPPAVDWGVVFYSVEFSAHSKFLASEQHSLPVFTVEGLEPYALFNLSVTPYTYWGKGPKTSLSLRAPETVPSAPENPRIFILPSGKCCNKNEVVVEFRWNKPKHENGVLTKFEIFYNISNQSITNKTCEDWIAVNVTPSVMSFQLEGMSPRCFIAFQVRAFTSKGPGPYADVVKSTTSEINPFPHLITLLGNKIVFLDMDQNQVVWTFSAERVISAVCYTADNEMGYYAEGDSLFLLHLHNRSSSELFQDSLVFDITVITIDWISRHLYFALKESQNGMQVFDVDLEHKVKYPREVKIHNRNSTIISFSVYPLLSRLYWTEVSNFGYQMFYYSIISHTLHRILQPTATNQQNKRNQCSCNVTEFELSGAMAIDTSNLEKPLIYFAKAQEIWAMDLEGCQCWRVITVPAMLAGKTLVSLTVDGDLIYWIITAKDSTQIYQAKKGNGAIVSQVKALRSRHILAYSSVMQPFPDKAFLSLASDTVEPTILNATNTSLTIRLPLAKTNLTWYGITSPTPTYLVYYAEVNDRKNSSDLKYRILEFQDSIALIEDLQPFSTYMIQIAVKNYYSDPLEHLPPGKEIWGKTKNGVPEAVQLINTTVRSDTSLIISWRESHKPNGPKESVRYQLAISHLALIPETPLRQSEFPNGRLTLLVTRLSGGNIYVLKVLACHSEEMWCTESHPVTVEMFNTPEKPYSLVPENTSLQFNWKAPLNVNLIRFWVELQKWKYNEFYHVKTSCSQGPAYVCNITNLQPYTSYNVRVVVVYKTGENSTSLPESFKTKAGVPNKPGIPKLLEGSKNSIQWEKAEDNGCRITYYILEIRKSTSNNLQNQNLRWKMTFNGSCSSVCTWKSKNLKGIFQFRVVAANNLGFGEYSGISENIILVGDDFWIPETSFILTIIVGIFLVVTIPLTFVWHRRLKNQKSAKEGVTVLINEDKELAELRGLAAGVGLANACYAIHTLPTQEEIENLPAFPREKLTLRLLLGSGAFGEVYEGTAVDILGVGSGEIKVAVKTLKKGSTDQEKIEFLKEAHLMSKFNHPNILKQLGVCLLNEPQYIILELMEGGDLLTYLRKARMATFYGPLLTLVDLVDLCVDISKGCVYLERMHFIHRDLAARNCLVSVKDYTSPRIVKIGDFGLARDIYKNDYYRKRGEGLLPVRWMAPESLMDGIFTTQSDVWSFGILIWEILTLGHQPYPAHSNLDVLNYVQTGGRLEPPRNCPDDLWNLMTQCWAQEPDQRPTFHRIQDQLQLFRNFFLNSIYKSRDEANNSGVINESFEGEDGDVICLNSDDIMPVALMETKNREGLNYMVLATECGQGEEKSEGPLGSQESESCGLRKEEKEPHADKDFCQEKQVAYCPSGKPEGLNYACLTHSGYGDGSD

[5] = molecular target: 468 kinases including some pathogenic mutants (Homo sapiens, UniProt P10721, T670I/V559D); details: read-out: Percent Control
[6] = molecular target: 468 kinases including some pathogenic mutants (Homo sapiens, UniProt P11802); details: 100 nM, read-out: Percent Control
Sequence of 468 kinases including some pathogenic mutants (Homo sapiens, UniProt P11802) (P11802 whole entry, change not shown): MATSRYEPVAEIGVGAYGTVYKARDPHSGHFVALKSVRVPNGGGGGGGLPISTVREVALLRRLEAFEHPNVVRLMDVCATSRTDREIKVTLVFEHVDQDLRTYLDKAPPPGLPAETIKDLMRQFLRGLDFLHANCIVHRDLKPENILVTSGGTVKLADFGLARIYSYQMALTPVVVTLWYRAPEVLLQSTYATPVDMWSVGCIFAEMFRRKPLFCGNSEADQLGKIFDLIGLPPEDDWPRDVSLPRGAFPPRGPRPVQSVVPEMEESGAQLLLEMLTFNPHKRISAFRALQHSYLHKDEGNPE

[7] = molecular target: 468 kinases including some pathogenic mutants (Homo sapiens, UniProt P15056); details: BRAF (Entrez BRAF), 100 nM; read-out: Percent Control
[8] = molecular target: 468 kinases including some pathogenic mutants (Homo sapiens, UniProt P21127); details: CDC2L1 (Entrez CDK11B), 100 nM; read-out: Percent Control
[9] = molecular target: 468 kinases including some pathogenic mutants (Homo sapiens, UniProt P23443); details: S6K1 (Entrez RPS6KB1), 1000 nM; read-out: Percent Control
[10] = molecular target: 468 kinases including some pathogenic mutants (Homo sapiens, UniProt P29597); details: read-out: Percent Control
Sequence of 468 kinases including some pathogenic mutants (Homo sapiens, UniProt P29597) (P29597 whole entry, change not shown): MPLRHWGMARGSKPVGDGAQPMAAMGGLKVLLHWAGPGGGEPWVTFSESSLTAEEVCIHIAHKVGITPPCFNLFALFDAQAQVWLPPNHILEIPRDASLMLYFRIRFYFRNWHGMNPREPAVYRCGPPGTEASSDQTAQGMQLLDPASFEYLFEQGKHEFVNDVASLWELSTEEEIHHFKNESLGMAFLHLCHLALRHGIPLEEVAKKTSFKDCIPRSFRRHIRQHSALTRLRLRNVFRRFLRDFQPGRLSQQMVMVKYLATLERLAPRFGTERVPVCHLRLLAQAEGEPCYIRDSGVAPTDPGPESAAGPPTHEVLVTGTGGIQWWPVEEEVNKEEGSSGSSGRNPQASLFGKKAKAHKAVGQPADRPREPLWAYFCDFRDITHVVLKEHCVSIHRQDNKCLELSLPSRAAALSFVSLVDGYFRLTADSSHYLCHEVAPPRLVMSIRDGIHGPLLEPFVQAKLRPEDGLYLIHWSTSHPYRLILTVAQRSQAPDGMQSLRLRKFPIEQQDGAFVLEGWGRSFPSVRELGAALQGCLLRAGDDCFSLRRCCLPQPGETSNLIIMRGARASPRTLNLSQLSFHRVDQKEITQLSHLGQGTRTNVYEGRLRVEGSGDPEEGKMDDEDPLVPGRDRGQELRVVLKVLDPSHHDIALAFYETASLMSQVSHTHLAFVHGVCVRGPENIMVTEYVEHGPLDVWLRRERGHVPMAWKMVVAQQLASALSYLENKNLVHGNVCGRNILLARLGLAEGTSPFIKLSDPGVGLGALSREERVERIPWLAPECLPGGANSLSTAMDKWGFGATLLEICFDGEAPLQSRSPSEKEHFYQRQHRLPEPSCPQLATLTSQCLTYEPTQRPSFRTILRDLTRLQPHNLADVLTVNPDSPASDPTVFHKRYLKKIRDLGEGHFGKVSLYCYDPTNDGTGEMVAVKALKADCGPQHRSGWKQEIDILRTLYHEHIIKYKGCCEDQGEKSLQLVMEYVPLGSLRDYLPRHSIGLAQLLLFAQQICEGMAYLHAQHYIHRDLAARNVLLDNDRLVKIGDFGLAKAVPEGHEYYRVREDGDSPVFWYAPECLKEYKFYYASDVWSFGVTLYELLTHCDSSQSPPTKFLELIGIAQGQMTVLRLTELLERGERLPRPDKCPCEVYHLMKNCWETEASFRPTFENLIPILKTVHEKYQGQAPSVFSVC

[11] = molecular target: 468 kinases including some pathogenic mutants (Homo sapiens, UniProt P42338); details: PIK3CB (Entrez PIK3CB), 100 nM; read-out: Percent Control
[12] = molecular target: 468 kinases including some pathogenic mutants (Homo sapiens, UniProt P48730); details: CSNK1D (Entrez CSNK1D), 100 nM; read-out: Percent Control
[13] = molecular target: 468 kinases including some pathogenic mutants (Homo sapiens, UniProt P51451); details: BLK (Entrez BLK), 100 nM; read-out: Percent Control
Sequence of 468 kinases including some pathogenic mutants (Homo sapiens, UniProt P51451) (P51451 whole entry, change not shown): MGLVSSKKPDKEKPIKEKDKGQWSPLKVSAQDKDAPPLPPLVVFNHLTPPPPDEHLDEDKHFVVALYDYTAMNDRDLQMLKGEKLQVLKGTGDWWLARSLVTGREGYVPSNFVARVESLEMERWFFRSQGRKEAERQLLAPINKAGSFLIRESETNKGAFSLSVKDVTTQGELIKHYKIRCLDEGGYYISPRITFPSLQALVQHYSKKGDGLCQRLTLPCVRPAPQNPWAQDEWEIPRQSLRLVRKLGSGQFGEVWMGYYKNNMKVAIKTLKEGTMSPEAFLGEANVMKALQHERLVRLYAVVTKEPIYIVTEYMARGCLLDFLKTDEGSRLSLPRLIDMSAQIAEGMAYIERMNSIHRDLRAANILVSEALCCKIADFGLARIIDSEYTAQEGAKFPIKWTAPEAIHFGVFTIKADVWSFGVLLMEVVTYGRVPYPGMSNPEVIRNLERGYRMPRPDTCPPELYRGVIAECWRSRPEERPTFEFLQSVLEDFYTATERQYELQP

[14] = molecular target: 468 kinases including some pathogenic mutants (Homo sapiens, UniProt P78356); details: PIP5K2B (Entrez PIP4K2B), 100 nM; read-out: Percent Control
[15] = molecular target: 468 kinases including some pathogenic mutants (Homo sapiens, UniProt Q04912); details: MST1R (Entrez MST1R), 100 nM; read-out: Percent Control
[16] = molecular target: 468 kinases including some pathogenic mutants (Homo sapiens, UniProt Q06418); details: TYRO3 (Entrez TYRO3), 100 nM; read-out: Percent Control
[17] = molecular target: 468 kinases including some pathogenic mutants (Homo sapiens, UniProt Q13523); details: PRP4 (Entrez PRPF4B), 1000 nM; read-out: Percent Control
[18] = molecular target: 468 kinases including some pathogenic mutants (Homo sapiens, UniProt Q13627); details: DYRK1A (Entrez DYRK1A), 100 nM; read-out: Percent Control
[19] = molecular target: 468 kinases including some pathogenic mutants (Homo sapiens, UniProt Q13976); details: PRKG1 (Entrez PRKG1), 100 nM; read-out: Percent Control
[20] = molecular target: 468 kinases including some pathogenic mutants (Homo sapiens, UniProt Q8TDC3); details: BRSK1 (Entrez BRSK1), 100 nM; read-out: Percent Control
[21] = molecular target: 468 kinases including some pathogenic mutants (Homo sapiens, UniProt Q9HBH9); details: MKNK2 (Entrez MKNK2), 1000 nM; read-out: Percent Control
[22] = molecular target: 468 kinases including some pathogenic mutants (Homo sapiens, UniProt Q9NYL2); details: ZAK (Entrez ZAK), 1000 nM; read-out: Percent Control
[23] = molecular target: 468 kinases including some pathogenic mutants (Homo sapiens, UniProt Q9P289); details: MST4 (Entrez MST4), 100 nM; read-out: Percent Control
Sequence of 468 kinases including some pathogenic mutants (Homo sapiens, UniProt Q9P289) (Q9P289 whole entry, change not shown): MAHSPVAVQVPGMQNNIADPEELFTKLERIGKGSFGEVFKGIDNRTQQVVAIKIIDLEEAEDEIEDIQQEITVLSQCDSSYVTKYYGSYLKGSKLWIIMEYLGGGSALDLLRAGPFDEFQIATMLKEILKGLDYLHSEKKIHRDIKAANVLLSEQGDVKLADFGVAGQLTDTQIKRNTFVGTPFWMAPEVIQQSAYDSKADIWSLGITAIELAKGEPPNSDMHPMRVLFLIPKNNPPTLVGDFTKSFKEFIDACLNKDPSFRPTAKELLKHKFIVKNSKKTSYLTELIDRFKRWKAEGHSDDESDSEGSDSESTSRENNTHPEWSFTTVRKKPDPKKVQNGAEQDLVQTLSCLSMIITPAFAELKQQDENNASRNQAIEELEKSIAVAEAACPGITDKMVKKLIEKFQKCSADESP

[24] = molecular target: 468 kinases including some pathogenic mutants (Homo sapiens, UniProt Q9UHD2); details: TBK1 (Entrez TBK1), 100 nM; read-out: Percent Control
[25] = molecular target: 468 kinases including some pathogenic mutants (Homo sapiens, UniProt Q9UPZ9); details: ICK (Entrez ICK), 100 nM; read-out: Percent Control
[26] = molecular target: 468 kinases including some pathogenic mutants (Homo sapiens, UniProt Q9Y2H9); details: MAST1 (Entrez MAST1), 100 nM; read-out: Percent Control
[27] = molecular target: 468 kinases including some pathogenic mutants (Homo sapiens, UniProt Q9Y4K4); details: MAP4K5 (Entrez MAP4K5), 100 nM; read-out: Percent Control
[28] = molecular target: 468 kinases including some pathogenic mutants (Homo sapiens, UniProt Q9Y6E0); details: MST3 (Entrez STK24), 100 nM; read-out: Percent Control

SMILES: CN1C(=O)[C@@H](N2CCc3c(nn(Cc4ccccc4)c3C(N)=O)C2=O)COc2cc(Cl)ccc21 [Compound 10, (S)-2-benzyl-6-(8-chloro-5-methyl-4-oxo-2,3,4,5-tetrahydrobenzo[b][1,4]oxazepin-3-yl)-7-oxo-4,5,6,7-tetrahydro-2H-pyrazolo[3,4-c]pyridine-3-carboxamide]
- remaining activity at 1 µM [1]: 100%
- remaining activity at 1 µM [2]: 100%
- remaining activity at 0.1 µM [3]: 79%
- remaining activity at 0.1 µM [4]: 78%
- remaining activity at 1 µM [5]: 100%
- remaining activity at 0.1 µM ([6]; CDK4 (Entrez CDK4)): 94%
- remaining activity at 0.1 µM ([6]; CDK4-cyclinD1 (Entrez CDK4)): 77%
- remaining activity at 0.1 µM ([6]; CDK4-cyclinD3 (Entrez CDK4)): 92%
- remaining activity at 0.1 µM [7]: 58%
- remaining activity at 0.1 µM [8]: 88%
- remaining activity at 1 µM [9]: 100%
- remaining activity at 0.1 µM ([10]; TYK2(JH1domain-catalytic) (Entrez TYK2), 100 nM): 72%
- remaining activity at 1 µM [10]: 100%
- remaining activity at 0.1 µM [11]: 100%
- remaining activity at 0.1 µM [12]: 79%
- remaining activity at 0.1 µM [13]: 84%
- remaining activity at 0.1 µM [14]: 55%
- remaining activity at 0.1 µM [15]: 82%
- remaining activity at 0.1 µM [16]: 100%
- remaining activity at 1 µM [17]: 100%
- remaining activity at 0.1 µM [18]: 89%
- remaining activity at 0.1 µM [19]: 78%
- remaining activity at 0.1 µM [20]: 91%
- remaining activity at 1 µM [21]: 100%
- remaining activity at 1 µM [22]: 100%
- remaining activity at 0.1 µM [23]: 77%
- remaining activity at 0.1 µM [24]: 89%
- remaining activity at 0.1 µM [25]: 100%
- remaining activity at 0.1 µM [26]: 67%
- remaining activity at 0.1 µM [27]: 100%
- remaining activity at 0.1 µM [28]: 97%
